From ChEMBL document CHEMBL1139672, “1,2,3,4-Tetrahydroisoquinolinyl sulfamic acids as phosphatase PTP1B inhibitors” (Bioorg Med Chem Lett, 2006)

How the values were obtained:
[1] = target: Receptor-type tyrosine-protein phosphatase F (Homo sapiens, UniProt P10586); assay: Inhibition of LAR
[2] = target: T1, Receptor-type tyrosine-protein phosphatase eta (Homo sapiens, UniProt Q12913); assay: Inhibition of HPTP eta
T1 sequence (Q12913 whole entry): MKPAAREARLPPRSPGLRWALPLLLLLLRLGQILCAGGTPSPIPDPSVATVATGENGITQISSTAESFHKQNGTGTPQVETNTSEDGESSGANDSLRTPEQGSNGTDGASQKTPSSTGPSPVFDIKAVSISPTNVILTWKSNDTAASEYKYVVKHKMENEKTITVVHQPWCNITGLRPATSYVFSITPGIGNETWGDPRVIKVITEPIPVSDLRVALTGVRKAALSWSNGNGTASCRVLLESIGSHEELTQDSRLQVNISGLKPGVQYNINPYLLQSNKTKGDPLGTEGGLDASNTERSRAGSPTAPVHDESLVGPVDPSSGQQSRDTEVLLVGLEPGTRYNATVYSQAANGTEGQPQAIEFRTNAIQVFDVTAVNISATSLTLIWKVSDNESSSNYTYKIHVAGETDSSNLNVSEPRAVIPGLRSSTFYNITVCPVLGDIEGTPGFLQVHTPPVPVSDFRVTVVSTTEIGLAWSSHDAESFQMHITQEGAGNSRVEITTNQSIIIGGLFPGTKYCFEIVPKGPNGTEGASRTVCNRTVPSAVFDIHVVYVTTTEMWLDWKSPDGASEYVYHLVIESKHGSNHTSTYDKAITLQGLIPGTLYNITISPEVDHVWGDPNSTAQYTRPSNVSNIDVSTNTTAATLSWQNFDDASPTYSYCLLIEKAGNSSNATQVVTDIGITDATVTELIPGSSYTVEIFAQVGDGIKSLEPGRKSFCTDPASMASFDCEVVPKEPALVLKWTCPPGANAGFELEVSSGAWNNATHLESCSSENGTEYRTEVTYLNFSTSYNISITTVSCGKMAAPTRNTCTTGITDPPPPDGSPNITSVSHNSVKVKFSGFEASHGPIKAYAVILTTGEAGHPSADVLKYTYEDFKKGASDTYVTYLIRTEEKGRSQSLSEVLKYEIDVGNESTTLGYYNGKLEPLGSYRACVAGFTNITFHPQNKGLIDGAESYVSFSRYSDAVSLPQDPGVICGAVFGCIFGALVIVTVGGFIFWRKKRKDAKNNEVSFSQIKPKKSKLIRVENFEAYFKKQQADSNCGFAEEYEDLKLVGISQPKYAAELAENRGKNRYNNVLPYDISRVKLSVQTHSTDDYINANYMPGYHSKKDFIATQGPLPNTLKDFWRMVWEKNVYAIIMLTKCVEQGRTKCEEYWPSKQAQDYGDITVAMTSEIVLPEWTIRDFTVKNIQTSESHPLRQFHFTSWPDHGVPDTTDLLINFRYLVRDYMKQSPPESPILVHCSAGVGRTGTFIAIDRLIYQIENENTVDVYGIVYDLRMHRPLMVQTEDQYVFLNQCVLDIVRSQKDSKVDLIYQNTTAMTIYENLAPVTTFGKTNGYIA

[3] = Inhibition of STP1
[4] = target: T2, Receptor-type tyrosine-protein phosphatase C (Homo sapiens, UniProt P08575); assay: Inhibition of CD45
T2 sequence (P08575 whole entry): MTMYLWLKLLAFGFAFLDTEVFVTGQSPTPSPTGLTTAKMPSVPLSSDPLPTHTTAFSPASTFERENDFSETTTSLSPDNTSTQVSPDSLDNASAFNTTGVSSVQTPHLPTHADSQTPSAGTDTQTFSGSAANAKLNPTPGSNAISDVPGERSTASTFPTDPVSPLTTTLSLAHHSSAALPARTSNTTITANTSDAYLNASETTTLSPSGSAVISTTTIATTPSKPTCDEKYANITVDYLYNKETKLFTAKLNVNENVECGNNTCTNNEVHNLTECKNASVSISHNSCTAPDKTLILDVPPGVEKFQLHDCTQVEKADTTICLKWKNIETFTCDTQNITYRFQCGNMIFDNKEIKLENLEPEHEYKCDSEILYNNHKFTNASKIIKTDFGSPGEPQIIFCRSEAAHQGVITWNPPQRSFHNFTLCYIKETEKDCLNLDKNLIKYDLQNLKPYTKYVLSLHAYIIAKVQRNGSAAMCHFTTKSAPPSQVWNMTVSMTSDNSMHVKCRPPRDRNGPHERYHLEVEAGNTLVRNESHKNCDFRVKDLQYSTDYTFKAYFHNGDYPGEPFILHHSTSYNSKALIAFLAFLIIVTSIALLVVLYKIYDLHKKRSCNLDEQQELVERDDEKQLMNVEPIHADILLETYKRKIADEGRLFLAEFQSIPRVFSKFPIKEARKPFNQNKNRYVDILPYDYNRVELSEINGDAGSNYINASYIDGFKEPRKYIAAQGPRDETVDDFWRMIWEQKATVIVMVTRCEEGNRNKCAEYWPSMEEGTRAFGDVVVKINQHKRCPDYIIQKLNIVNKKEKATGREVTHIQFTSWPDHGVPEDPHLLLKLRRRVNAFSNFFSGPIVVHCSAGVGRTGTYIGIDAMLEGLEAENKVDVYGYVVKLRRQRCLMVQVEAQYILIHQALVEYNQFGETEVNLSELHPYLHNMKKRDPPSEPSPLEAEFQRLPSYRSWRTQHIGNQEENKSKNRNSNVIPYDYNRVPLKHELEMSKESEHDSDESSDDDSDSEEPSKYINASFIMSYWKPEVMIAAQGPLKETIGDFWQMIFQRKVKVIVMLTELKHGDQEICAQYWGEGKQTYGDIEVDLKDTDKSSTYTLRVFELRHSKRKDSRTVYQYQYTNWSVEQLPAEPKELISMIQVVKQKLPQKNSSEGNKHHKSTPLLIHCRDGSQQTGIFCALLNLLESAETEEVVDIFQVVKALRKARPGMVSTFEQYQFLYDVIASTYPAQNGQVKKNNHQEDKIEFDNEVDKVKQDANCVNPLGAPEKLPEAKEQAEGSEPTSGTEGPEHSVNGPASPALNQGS

[5] = target: Receptor-type tyrosine-protein phosphatase gamma (Homo sapiens, UniProt P23470); assay: Inhibition of PTP gamma
[6] = target: Receptor-type tyrosine-protein phosphatase beta (Homo sapiens, UniProt P23467); assay: Inhibition of HPTP beta
[7] = target: T3, Low molecular weight phosphotyrosine protein phosphatase (Homo sapiens, UniProt P24666); assay: Inhibition of HCPTPA
T3 sequence (P24666 whole entry): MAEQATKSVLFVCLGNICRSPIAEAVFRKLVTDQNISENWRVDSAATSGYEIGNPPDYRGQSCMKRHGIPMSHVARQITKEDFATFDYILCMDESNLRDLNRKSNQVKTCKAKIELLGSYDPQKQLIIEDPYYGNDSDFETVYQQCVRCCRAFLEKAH

Receptor-type tyrosine-protein phosphatase gamma, sequence (P23470 whole entry): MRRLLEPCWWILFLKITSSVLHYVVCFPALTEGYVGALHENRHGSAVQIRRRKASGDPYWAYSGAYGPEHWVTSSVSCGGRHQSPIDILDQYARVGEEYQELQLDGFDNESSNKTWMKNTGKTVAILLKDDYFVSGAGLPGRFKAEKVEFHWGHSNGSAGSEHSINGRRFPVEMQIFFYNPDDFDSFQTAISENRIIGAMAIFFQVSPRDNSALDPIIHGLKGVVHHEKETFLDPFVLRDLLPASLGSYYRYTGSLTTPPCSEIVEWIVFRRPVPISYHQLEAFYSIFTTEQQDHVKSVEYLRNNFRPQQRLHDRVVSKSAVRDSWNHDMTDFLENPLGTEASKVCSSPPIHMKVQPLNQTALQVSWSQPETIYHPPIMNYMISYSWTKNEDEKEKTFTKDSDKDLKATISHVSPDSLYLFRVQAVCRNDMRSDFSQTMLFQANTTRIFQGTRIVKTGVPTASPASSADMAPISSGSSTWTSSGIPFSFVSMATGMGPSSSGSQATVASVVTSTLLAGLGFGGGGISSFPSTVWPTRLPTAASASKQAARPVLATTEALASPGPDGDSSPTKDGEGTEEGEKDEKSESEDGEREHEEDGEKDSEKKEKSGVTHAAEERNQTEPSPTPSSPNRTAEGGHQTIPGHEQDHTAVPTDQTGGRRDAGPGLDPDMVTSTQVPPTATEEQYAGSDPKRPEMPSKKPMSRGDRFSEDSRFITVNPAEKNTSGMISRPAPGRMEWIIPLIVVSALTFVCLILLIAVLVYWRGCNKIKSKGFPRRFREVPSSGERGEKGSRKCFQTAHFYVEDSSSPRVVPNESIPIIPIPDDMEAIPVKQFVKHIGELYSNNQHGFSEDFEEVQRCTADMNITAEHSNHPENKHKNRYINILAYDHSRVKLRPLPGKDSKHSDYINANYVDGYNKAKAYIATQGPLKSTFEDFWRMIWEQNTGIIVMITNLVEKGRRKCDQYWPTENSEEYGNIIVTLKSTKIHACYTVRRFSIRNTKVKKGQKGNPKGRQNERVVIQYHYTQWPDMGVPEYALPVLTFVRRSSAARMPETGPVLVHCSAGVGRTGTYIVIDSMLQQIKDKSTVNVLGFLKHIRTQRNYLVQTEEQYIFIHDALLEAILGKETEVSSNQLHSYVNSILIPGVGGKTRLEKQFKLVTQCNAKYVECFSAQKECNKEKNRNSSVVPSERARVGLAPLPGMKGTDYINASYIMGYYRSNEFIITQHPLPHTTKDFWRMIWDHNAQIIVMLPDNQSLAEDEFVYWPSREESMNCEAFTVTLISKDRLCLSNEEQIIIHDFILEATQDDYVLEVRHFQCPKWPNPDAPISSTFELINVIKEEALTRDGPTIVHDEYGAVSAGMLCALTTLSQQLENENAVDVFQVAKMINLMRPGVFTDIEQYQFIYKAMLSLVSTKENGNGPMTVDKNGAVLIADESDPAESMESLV
Receptor-type tyrosine-protein phosphatase F, sequence (P10586 whole entry): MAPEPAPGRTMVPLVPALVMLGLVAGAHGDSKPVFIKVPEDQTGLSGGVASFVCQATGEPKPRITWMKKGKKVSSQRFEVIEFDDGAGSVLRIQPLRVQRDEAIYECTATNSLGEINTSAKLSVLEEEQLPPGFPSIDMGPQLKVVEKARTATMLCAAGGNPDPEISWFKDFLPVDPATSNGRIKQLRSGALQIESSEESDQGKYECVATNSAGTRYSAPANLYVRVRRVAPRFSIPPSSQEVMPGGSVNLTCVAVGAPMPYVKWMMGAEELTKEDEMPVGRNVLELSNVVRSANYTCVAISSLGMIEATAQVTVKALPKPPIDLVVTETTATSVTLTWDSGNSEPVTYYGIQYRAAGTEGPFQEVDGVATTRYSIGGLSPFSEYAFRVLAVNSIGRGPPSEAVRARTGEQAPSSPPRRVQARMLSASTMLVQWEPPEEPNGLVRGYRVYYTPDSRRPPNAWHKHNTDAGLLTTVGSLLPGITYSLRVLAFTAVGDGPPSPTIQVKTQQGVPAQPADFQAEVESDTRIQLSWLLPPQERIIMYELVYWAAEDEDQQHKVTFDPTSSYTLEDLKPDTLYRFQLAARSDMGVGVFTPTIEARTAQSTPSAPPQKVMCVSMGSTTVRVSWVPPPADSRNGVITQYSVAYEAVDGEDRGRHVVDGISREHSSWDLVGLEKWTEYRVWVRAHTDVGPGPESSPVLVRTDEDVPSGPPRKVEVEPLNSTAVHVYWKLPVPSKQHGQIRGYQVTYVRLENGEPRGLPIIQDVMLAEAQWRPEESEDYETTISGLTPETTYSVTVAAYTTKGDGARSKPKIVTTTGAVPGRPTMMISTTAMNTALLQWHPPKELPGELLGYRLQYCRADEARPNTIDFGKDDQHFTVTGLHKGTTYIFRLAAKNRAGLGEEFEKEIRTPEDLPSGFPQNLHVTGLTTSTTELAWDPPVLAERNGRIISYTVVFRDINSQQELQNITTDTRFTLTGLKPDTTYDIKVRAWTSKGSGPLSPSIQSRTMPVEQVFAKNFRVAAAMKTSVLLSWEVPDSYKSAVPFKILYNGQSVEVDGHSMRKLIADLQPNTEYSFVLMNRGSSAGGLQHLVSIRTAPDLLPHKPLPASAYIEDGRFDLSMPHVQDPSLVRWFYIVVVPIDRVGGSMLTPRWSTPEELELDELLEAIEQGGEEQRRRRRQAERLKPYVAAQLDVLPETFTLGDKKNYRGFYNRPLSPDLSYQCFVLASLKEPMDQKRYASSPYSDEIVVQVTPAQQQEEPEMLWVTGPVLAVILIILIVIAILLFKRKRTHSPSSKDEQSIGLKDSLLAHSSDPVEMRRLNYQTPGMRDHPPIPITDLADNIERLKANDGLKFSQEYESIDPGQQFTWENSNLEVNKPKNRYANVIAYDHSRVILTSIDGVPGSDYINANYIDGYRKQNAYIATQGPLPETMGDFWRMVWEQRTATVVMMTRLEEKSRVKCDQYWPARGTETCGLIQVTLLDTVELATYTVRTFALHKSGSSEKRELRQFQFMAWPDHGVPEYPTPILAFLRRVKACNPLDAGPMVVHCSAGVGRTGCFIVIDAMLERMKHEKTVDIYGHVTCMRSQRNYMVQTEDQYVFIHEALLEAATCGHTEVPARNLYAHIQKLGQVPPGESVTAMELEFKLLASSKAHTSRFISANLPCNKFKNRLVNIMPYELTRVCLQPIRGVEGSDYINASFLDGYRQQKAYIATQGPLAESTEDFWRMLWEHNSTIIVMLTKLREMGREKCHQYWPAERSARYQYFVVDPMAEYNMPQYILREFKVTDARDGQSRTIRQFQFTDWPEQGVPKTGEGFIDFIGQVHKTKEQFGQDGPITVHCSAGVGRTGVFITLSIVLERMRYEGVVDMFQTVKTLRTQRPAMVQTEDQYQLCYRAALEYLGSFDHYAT

CNC(=O)[C@@H]1Cc2ccc(NS(=O)(=O)O)cc2CN1C(=O)CCc1cccc(NS(=O)(=O)O)c1
IC50 [1]: > 500 µM
IC50 [2]: 150 µM
IC50 [3]: 8.1 µM
IC50 [4]: > 500 µM
IC50 [5]: > 500 µM
IC50 [6]: 20.7 µM
IC50 [7]: 3.1 µM
